Test results from patent US7074829B2, “Antiestrogens, process for their production and their pharmaceutical use” (Schering AG, priority 1998, dated 2006).

Test system: uterus
Test: Uterus growth test in infant rats (antiestrogenic action)
Assay type: in vivo, rat
Conditions: inhibition compared to the estradiol benzoate (EB) control

SMILES | Antiuterotrophic Action at 0.3 mg s.c. [% Inhibition]
C[C@]12C[C@H](c3ccc(OCCCCC[S+]([O-])CCCC(F)(F)C(F)(F)F)cc3)[C@H](c3ccc(O)cc3)C[C@@H]1CC[C@@H]2O (stereo partly drawn) [Example 3, (1S,3S,4R,6S,9S)-9-Hydroxy-4-(4-hydroxyphenyl)-1-methyl-3-[4-(5-(4,4,5,5,5-pentafluoro-pentylsulfinyl)pentyloxy)phenyl]-bicyclo[4.3.0]nonane] | 37 % Inhibition
CC(=O)O[C@H]1CC[C@H]2C[C@@H](c3ccc(O)cc3)[C@@H](c3ccc(OCCCCC[S+]([O-])CCCC(F)(F)C(F)(F)F)cc3)C[C@@]21C (some centres unmarked) [Example 5] | 55 % Inhibition
